Experimental data published in PMC9757636, “The effectiveness of newly synthesized quaternary ammonium salts differing in chain length and type of counterion against priority human pathogens” (Scientific Reports, 2022).
Marks after values point to notes of the source that are not given here.

How the values were obtained:
[1] = tested on: P. aeruginosa ATCC 27853; assay: MIC/MBC microdilution; format: cell-based, Pseudomonas aeruginosa; conditions: P. aeruginosa ATCC 27853; for Minimal bactericidal concentration (*MBC): 99.9% reduction; for Minimal inhibitory concentration (MIC): 24 h, 37 °C, >90% growth inhibition
Description: (§1) The minimum inhibitory concentration (MIC) of the tested monomeric QAS was performed using the microdilution method according to CLSI recommendation (M27-A3). Concentrations from 10 to 1280 µM were analyzed. Strains were incubated with or without compounds (growth control) for 24 h at 37 °C. Three independent replicates were performed. The MIC value was determined spectrophotometrically and the concentration that inhibited more than 90% of growth was determined. Optical density was measured at λ = 590 nm using a 96-well microplate reader (Bio-Rad Universal Hood II).
(§2) To determine the minimum bactericidal concentration (MBC), 10 µL of bacterial suspension incubated with monomeric QAS (MIC concentration and two times higher) was transferred to plates with LB (1% tryptone, 1% yeast extract, 0.5% NaCl) medium. […] The concentration that reduced 99.9% of microbial growth was determined as MBC[54].

[2] = tested on: P. aeruginosa PAO1; assay: MIC/MBC microdilution; format: cell-based, Pseudomonas aeruginosa; conditions: for Minimal bactericidal concentration (*MBC): 99.9% reduction; for Minimal inhibitory concentration (MIC): 24 h, 37 °C, >90% growth inhibition
Description: as §1, §2

[3] = tested on: P. aeruginosa PAO1; assay: Adhesion to glass; format: cell-based, Pseudomonas aeruginosa; conditions: concentration not given
[4] = tested on: S. aureus ATCC 6538; assay: MIC/MBC microdilution; format: cell-based, Staphylococcus aureus; conditions: S. aureus ATCC 6538; for Minimal bactericidal concentration (*MBC): 99.9% reduction; for Minimal inhibitory concentration (MIC): 24 h, 37 °C, >90% growth inhibition
Description: as §1, §2

[5] = tested on: S. aureus MRSA R98; assay: MIC/MBC microdilution; format: cell-based, Staphylococcus aureus; conditions: for Minimal bactericidal concentration (*MBC): 99.9% reduction; for Minimal inhibitory concentration (MIC): 24 h, 37 °C, >90% growth inhibition
Description: as §1, §2

[6] = tested on: S. epidermidis ATCC 35984; assay: MIC/MBC microdilution; format: cell-based, Staphylococcus epidermidis; conditions: for Minimal bactericidal concentration (*MBC): 99.9% reduction; for Minimal inhibitory concentration (MIC): 24 h, 37 °C, >90% growth inhibition
Description: as §1, §2

[7] = tested on: S. epidermidis B374; assay: MIC/MBC microdilution; format: cell-based, Staphylococcus epidermidis; conditions: S. epidermidis B374; for Minimal bactericidal concentration (*MBC): 99.9% reduction; for Minimal inhibitory concentration (MIC): 24 h, 37 °C, >90% growth inhibition
Description: as §1, §2

[8] = tested on: S. epidermidis SI8; assay: MIC/MBC microdilution; format: cell-based, Staphylococcus epidermidis; conditions: for Minimal bactericidal concentration (*MBC): 99.9% reduction; for Minimal inhibitory concentration (MIC): 24 h, 37 °C, >90% growth inhibition
Description: as §1, §2

[9] = tested on: E. coli ATCC 11229; assay: MIC/MBC microdilution; format: cell-based, Escherichia coli; conditions: E. coli ATCC 11229; for Minimal bactericidal concentration (*MBC): 99.9% reduction; for Minimal inhibitory concentration (MIC): 24 h, 37 °C, >90% growth inhibition
Description: as §1, §2

[10] = tested on: E. coli H64; assay: MIC/MBC microdilution; format: cell-based, Escherichia coli; conditions: E. coli H64; for Minimal bactericidal concentration (*MBC): 99.9% reduction; for Minimal inhibitory concentration (MIC): 24 h, 37 °C, >90% growth inhibition
Description: as §1, §2

[11] = Critical micelle concentration by conductometric measurements; format: physicochemical; conditions: aqueous solution, 25 °C
Description: Values of critical micelle concentrations (CMC) of cationic surfactants were measured conductrometrically. N5721 conductometer (Tel-Eko Projekt sp z o.o., Poland), equipped with N5981 probe, was calibrated using 0.1 M, 0.01 M and 0.001 M KCl aqueous solutions (conductivities equal to 1.287 S/m, 0.141 S/m and 0.0147 S/m, respectively) and used without temperature compensation mode (constant temperature 25 °C was kept during all calibration procedures and measurements). Values of specific conductivities of at least 15 different concentrations for each surfactant were measured and plotted versus concentration; the discontinuity point was used to determine critical micelle concentration.

[12] = tested on: Salmonella typhimurium TA100; assay: Mutagenicity (Ames test); format: cell-based; conditions: for Number of colonies: ± SD
Description: (§3) Two reference strains of Salmonella Typhimurium TA98 and Salmonella Typhimurium TA100, deficient in histidine synthesis, were used for this study according to the method proposed by Ames et al. with modifications. […] The mixture was mixed and poured onto a Davis minimal medium plate. The mixture without the test compound was used as a negative control. The positive control was a mixture of bacterial culture, biotin-histidine solution, and sodium azide (at a concentration of 15 μg/mL for strain TA100) or acriflavine (at a concentration of 100 μg/mL for strain TA98). Plates were incubated for 48 h at 37 °C, and then colonies were counted. The mutagenicity ratio (MR), the ratio of the number of revertants grown in the presence of the test compound to the number of spontaneously occurring revertants (negative control), was calculated. A mutagenic ratio equal to or greater than 1.7 indicates the mutagenic potential of the tested compounds. The study was performed in three times.

[13] = tested on: Salmonella typhimurium TA98; assay: Mutagenicity (Ames test); format: cell-based; conditions: for Number of colonies: ± SD
Description: as §3

[14] = tested on: S. epidermidis B374; assay: Adhesion to polystyrene plate; format: cell-based, Staphylococcus epidermidis; conditions: 1280 µM
Description: Adhesion analysis to polystyrene surfaces was determined according to the method of Rodrigues et al. with modifications. Polystyrene 96-well plates were incubated with the respective compound concentrations (10–1280 µM) for 4 h at 37 °C with 100 rpm shaking. The plates were then washed with miliQ and inoculated with 100 µL of bacterial suspension (OD = 0.4–0.6). Plates were incubated for 6 h at 37 °C with 100 rpm shaking. Wells were rinsed and fixed for 20 min at 60 °C. They were then […] with 0.1% crystal violet solution for 5 min. The wells were washed with miliQ until the unfixed dye was completely eluted. The absorbance at λ = 590 nm was measured using a reader (Bio-Rad Universal Hood II). The positive control was a surface not treated with QAS. Three independent trials were performed.

Structure (SMILES)	Minimal bactericidal concentration (*MBC) [1]	Minimal inhibitory concentration (MIC) [1]	Minimal bactericidal concentration (*MBC) [2]	Minimal inhibitory concentration (MIC) [2]	reduction of adhesion to glass [3]	Minimal bactericidal concentration (*MBC) [4]	Minimal inhibitory concentration (MIC) [4]	Minimal bactericidal concentration (*MBC) [5]	Minimal inhibitory concentration (MIC) [5]	Minimal bactericidal concentration (*MBC) [6]	Minimal inhibitory concentration (MIC) [6]	Minimal bactericidal concentration (*MBC) [7]	Minimal inhibitory concentration (MIC) [7]	Minimal bactericidal concentration (*MBC) [8]	Minimal inhibitory concentration (MIC) [8]	Minimal bactericidal concentration (*MBC) [9]	Minimal inhibitory concentration (MIC) [9]	Minimal bactericidal concentration (*MBC) [10]	Minimal inhibitory concentration (MIC) [10]	CMC [11]	other results
CCCCCCCCCCCC(=O)N(C)CCC[N+](C)(C)C.[Br-] [BrC12]	1280 *1280 µM	1280 *1280 µM	> 1280 * > 1280 µM	> 1280 * > 1280 µM	approximately 20%	1280 *1280 µM	1280 *1280 µM	640 *640 µM	640 *640 µM	640 *640 µM	640 *640 µM	640 *640 µM	640 *640 µM	640 *640 µM	640 *640 µM	1280 *1280 µM	1280 *1280 µM	1280 *1280 µM	1280 *1280 µM	0.0086 mol/L	mutagenicity index (MR) ([12]; base pair substitution type mutations, MR >= 1.7 indicates mutagenic potential): < 1.7; Mutagenicity index ([12]; ¼ MIC): 1.41; Number of colonies ([12]; ¼ MIC): 179.3 ± 13.9; Mutagenicity index ([12]; ½ MIC): 1.15; Number of colonies ([12]; ½ MIC): 146 ± 18.5; mutagenicity index (MR) ([13]; reading frame shift type mutation, MR >= 1.7 indicates mutagenic potential): above 1.7; Mutagenicity index ([13]; ¼ MIC): 0.78; Number of colonies ([13]; ¼ MIC): 20 ± 1.4; Mutagenicity index ([13]; ½ MIC): 1.98; Number of colonies ([13]; ½ MIC): 50.5 ± 6.4
CCCCCCCCCCCCCC(=O)N(C)CCC[N+](C)(C)C.[Br-] [BrC14]	1280 *1280 µM	1280 *1280 µM	> 1280 * > 1280 µM	> 1280 * > 1280 µM	approximately 20%	320 *320 µM	320 *320 µM	320 *320 µM	320 *320 µM	160 *160 µM	160 *160 µM	640 * > 640 µM	640 * > 640 µM	160 *160 µM	160 *160 µM	> 1280 * > 1280 µM	> 1280 * > 1280 µM	320 *320 µM	320 *320 µM	0.0025 mol/L	reduced adhesion to polystyrene [14]: 82%; Mutagenicity index ([12]; ¼ MIC): 1.24; Number of colonies ([12]; ¼ MIC): 158 ± 19.8; Mutagenicity index ([12]; ½ MIC): 1.16; Number of colonies ([12]; ½ MIC): 147.5 ± 21.9; Mutagenicity index ([13]; ¼ MIC): 0.73; Number of colonies ([13]; ¼ MIC): 18.7 ± 6.4; Mutagenicity index ([13]; ½ MIC): 0.84
